A short description of the data set: in vitro. The following applies: human, hela cells, % viability.

Our source for the viability values is publication PMC12040169 (PLOS Biology, 2025).

A word on the viability: it is a read-out of living cells in per cent, often relative to untreated cells.

As for `CC(C)(C)n1cc2c(n1)[C@H]1CN(C(=O)CN3CCCC3=O)C[C@H]1CC2` [CBK283401], the viability at 28.5 h, 10 µM turned out to be 89.2%. With `O=C(C1CCC1)N1CCC(c2nnc(-c3ccsc3)o2)CC1` [CBK283405] the figure was 104%. With `Cc1cc(O)cc(C2CCCN(C(=O)c3ccc(F)c(F)c3)C2)n1` (stereo not shown) [CBK283406] the figure was 105%; with `Cc1noc(-c2cn(C)nc2C2CCCCN2C(=O)C2CC2)c1C` (stereo not shown) [CBK283410], 96.9%; with `Cn1nccc1C(=O)N1CCCC(c2cc3ncccc3[nH]2)C1` (stereo not shown) [CBK283413], 104%. Regarding `O=C(Cc1ccc(F)cc1)N1CCCC(c2cc3ncccc3[nH]2)C1` (stereo not shown) [CBK283414], the viability at 28.5 h, 10 µM worked out at 109%. In the case of `COc1ccccc1CC(=O)N1CCCC(c2cc3ncccc3[nH]2)C1` (stereo not shown) [CBK283417], the viability at 28.5 h, 10 µM stood at 95.4%.

On to `Cc1c(C(=O)N2CCCC(c3cc4ncccc4[nH]3)C2)cnn1C` (stereo not shown) [CBK283420], for which the viability at 28.5 h, 10 µM came out at 94.8%. In the case of `Cc1ccc(CC(=O)N2CCCC2c2n[nH]cc2-c2ccncc2)cc1` (stereo not shown) [CBK283424] it was 106%; in that of `COc1cccc(CC(=O)N2CCCC(c3cc4ncccc4[nH]3)C2)c1` (stereo not shown) [CBK283426], 94.1%; in that of `O=C(C1CCCC1)N1CCCCC1c1n[nH]cc1-c1ccncc1` (stereo not shown) [CBK283427], 90.4%. Regarding `O=C(c1ccccc1F)N1CCCC1c1n[nH]cc1-c1ccncc1` (stereo not shown) [CBK283428], the viability at 28.5 h, 10 µM was determined as 87.7%. In the case of `CC(C)(C)CC(=O)N1CCCC1c1n[nH]cc1-c1ccncc1` (stereo not shown) [CBK283430] it was 88.5%. With `O=C(C1CCCCC1)N1CCCC1c1n[nH]cc1-c1ccncc1` (stereo not shown) [CBK283434] the figure was 87.2%. In the case of `O=C(CCc1ccccc1)N1CCCC1c1n[nH]cc1-c1ccncc1` (stereo not shown) [CBK283436] it was 91.4%; in that of `O=C(c1cccc(F)c1)N1CCCC1c1n[nH]cc1-c1ccncc1` (stereo not shown) [CBK283437], 93.2%. Consider `CC(C)C(=O)N1C[C@H]2CCc3nnc(-c4ccccc4)n3[C@H]2C1` [CBK283438], for which the viability at 28.5 h, 10 µM came out at 88%. In the case of `CCC(CC)C(=O)N1C[C@H]2CCc3nnc(-c4ccccc4)n3[C@H]2C1` [CBK283439], the viability at 28.5 h, 10 µM worked out at 86.7%. In the case of `CC(=O)Nc1ccc(Oc2cc(C)nc(C3CCCNC3)c2)cc1` (stereo not shown) [CBK283443], the viability at 28.5 h, 10 µM is 88.1%.

`Cc1cccc(CC(=O)N2CCCC2c2n[nH]cc2-c2ccncc2)c1` (stereo not shown) [CBK283447]: the viability at 28.5 h, 10 µM stood at 90.7%. Turning to `COCc1ccc(C(=O)N2CCC(c3cc4cnccc4[nH]3)CC2)cc1` [CBK283448], the viability at 28.5 h, 10 µM stood at 99.3%.

For the compound `COc1ccc(CC(=O)N2CCC(c3cc4cnccc4[nH]3)CC2)cc1` [CBK283451], the viability at 28.5 h, 10 µM was found to be 87.2%. With `O=C(Cc1ccc(F)cc1)N1CCC(c2cc3cnccc3[nH]2)CC1` [CBK283454] the figure was 85.7%. With `COc1cccc(CC(=O)N2CCC[C@@H](N)[C@@H]2c2ccccc2F)c1` [CBK283455], the viability at 28.5 h, 10 µM worked out at 84.5%. With `COc1ccc(CC(=O)N2CCC[C@@H](N)[C@@H]2c2ccccc2F)cc1` [CBK283456], the viability at 28.5 h, 10 µM worked out at 102%.

As for `COc1cccc(C(=O)N2CCC[C@@H](N)[C@@H]2c2ccccc2F)c1` [CBK283457], the viability at 28.5 h, 10 µM turned out to be 88.1%. With `COc1c(C)cccc1C(=O)N1CCC(c2cc3cnccc3[nH]2)CC1` [CBK283460] the figure was 89.9%. In the case of `CC(C)(C)OC(=O)N1CCC[C@]2(CCC(=O)N2)[C@H]1c1cccc(F)c1` [CBK283463] it was 96.7%. In the case of `Cc1csc(C(=O)N2CCC(c3cc(O)cc(C)n3)CC2)c1` [CBK283466], the viability at 28.5 h, 10 µM was 89%. In the case of `CC(=O)Nc1ccc(Oc2cc(C)nc(C3CCNCC3)c2)cc1` [CBK283468] it was 86.5%. Turning to `CN(C)Cc1cc(-c2ccc(CNC(=O)C3CC3)cc2)nn1C` [CBK283470], the viability at 28.5 h, 10 µM was found to be 80.5%. In the case of `CC(=O)NCCn1nc(-c2ccccc2F)cc1CN(C)C` [CBK283473] it was 95.7%; in that of `CCCC(=O)NC[C@H]1CC[C@H](c2ccnc3cc(C)nn32)CC1` [CBK283474], 102%; in that of `Cc1cc2nccc([C@H]3CC[C@H](CNC(=O)C(C)C)CC3)n2n1` [CBK283475], 94.9%. As for `CC(C)CN1C[C@H]2N(C)C(=O)c3ccccc3C(=O)[C@@]2(C)C1` [CBK283477], the viability at 28.5 h, 10 µM came out at 86.6%. With `CCN1C(=O)c2ccccc2C(=O)[C@@]2(C)CN(C)C[C@@H]12` [CBK283478] the figure was 88.3%. `CCN1C(=O)c2ccccc2C(=O)[C@@]2(C)CN(C(C)C)C[C@@H]12` [CBK283480]: the viability at 28.5 h, 10 µM was determined as 109%. In the case of `CN1C(=O)c2ccccc2C(=O)[C@@]2(C)CN(CC(C)(C)C)C[C@@H]12` [CBK283481] it was 93.8%; in that of `O=C(C1CCCO1)N1CCC(c2ccc(F)cc2)CC1` (stereo not shown) [CBK283484], 81.4%; in that of `O=C1CC2(CCN(C(=O)C3CCCC3)CC2)Oc2ccccc21` [CBK283485], 94.9%. For `CCC(=O)N1CCC2(CC1)Nc1ccccc1-n1cccc12` [CBK283488], the viability at 28.5 h, 10 µM turned out to be 108%.

In the case of `O=C(c1cccs1)N1CCC2(CC1)Nc1ccccc1-n1cccc12` [CBK283489], the viability at 28.5 h, 10 µM amounted to 99.3%. As to `OC1(c2ccc(F)cc2)CC2CCC(C1)N2Cc1ccccn1` (stereo not shown) [CBK283490], the viability at 28.5 h, 10 µM worked out at 108%. In the case of `CC(=O)NC1(c2ccc(F)cc2)CCN(C(=O)C(C)C)CC1` [CBK283491] it was 103%; in that of `CC(=O)NC1(c2ccc(F)cc2)CCN(C(=O)C2CCC2)CC1` [CBK283492], 109%.

Consider `O=C1NC2=C(C(=O)N(CC3CCCO3)C2)C(c2ccccc2)N1` (stereo not shown) [CBK283494], for which the viability at 28.5 h, 10 µM was 100%.

Take `CCN(CC)C(=O)N1CCC2(CC1)CC(=O)c1ccccc1O2` [CBK283495]: the viability at 28.5 h, 10 µM turned out to be 105%. With `CCN(CC)C(=O)CN1CC=C(c2ccc(C)o2)CC1` [CBK283497] the figure was 100%; with `c1coc(-c2nc3cnccn3c2NC2CCCCC2)c1` [CBK283498], 93.6%; with `CC(C)(C)NC(=O)CN1CCC(c2ccccc2F)CC1` [CBK283499], 92.1%.

For the compound `O=C(Cc1cccs1)N1CCC(O)(c2cccnc2)CC1` [CBK283501], the viability at 28.5 h, 10 µM is 104%. With `O=C(c1cccnc1)C1CCN(C(=O)C2CCCC2)CC1` [CBK283508] the figure was 96.2%; with `COC(=O)[C@H]1CN(C(=O)c2ccncc2)C[C@@H]1c1ccc(F)cc1` [CBK283509], 94.2%. Regarding `COC(=O)[C@H]1CN(C(=O)c2cn(C)nc2C)C[C@@H]1c1ccccc1F` [CBK283511], the viability at 28.5 h, 10 µM came out at 88.2%. With `Cc1oc(C2CC2)cc1C(=O)N1CCC(c2ccncc2)CC1` [CBK283514], the viability at 28.5 h, 10 µM is 95.2%. With `Cc1ccc(C(C)C(=O)N2CCC(C(=O)c3cccnc3)CC2)cc1` (stereo not shown) [CBK283516] the figure was 93.5%; with `O=C(c1cccnc1)C1CCN(C(=O)Cc2ccsc2)CC1` [CBK283517], 90.7%. In the case of `COC(=O)[C@H]1CN(C(=O)CN2CCCC2=O)C[C@@H]1c1ccccc1F` [CBK283518] it was 89.2%; in that of `CCn1c(C(CC(C)C)NC(=O)c2ccco2)nc2cccnc21` (stereo not shown) [CBK283523], 94.3%; in that of `Cc1ccsc1-c1nc2cnccn2c1NC1CCCC1` [CBK283524], 93.9%. In the case of `CC(C)n1c(=O)n(CC(=O)N2CCCCC2)c2cccnc21` [CBK283526] it was 90.6%; in that of `CC(C)n1c(=O)n(CC(=O)N2CCCCCC2)c2cccnc21` [CBK283527], 92.4%; in that of `O=C(c1cccnc1)C1CCN(C(=O)CC2CC3CCC2C3)CC1` (stereo not shown) [CBK283530], 95.1%. On to `CC(C)n1c(=O)n(CCN2CCCC2)c2cccnc21` [CBK283532], for which the viability at 28.5 h, 10 µM turned out to be 98.6%.

As for `CCN(CC)C(=O)N1CCC(c2cccnc2)CC1` [CBK283535], the viability at 28.5 h, 10 µM is 99.9%.

Turning to `Cn1ccnc1C1(O)CCN(C(=O)C2(c3ccccc3)CC2)CC1` [CBK283538], the viability at 28.5 h, 10 µM was 98.4%. `Cn1ccnc1C1(O)CCN(C(=O)c2ccc(F)cc2)CC1` [CBK283541]: the viability at 28.5 h, 10 µM came to 91.5%. Take `Cn1ccnc1C1(O)CCN(C(=O)c2cccc(F)c2)CC1` [CBK283543]: the viability at 28.5 h, 10 µM was found to be 107%.

Regarding `O=C(c1ccncc1)N1C2CCC1CC(O)(c1ccc(F)cc1)C2` (stereo not shown) [CBK283545], the viability at 28.5 h, 10 µM was determined as 95.6%. With `CC(=O)NC1(c2ccc(F)cc2)CCN(C(=O)C2CCCCC2)CC1` [CBK283546] the figure was 96.9%; with `O=C(CN1CCC(c2ccccc2F)CC1)N1CCOCC1` [CBK283548], 89.3%. In the case of `CCN(CC)C(=O)CN1CCC(c2ccccc2F)CC1` [CBK283549] it was 94%. With `Cc1ccc(C2=CCN(CC(=O)Nc3nccs3)CC2)o1` [CBK283557] the figure was 93.7%; with `COc1ccc(C2CCN(CC(=O)NCc3ccco3)CC2)cc1` [CBK283562], 103%.

`COc1ccc(C2CCN(Cc3ccncc3)CC2)cc1` [CBK283563]: the viability at 28.5 h, 10 µM is 95.8%. Take `COc1ccc(C2CCN(CC(=O)NC3CCCC3)CC2)cc1` [CBK283565]: the viability at 28.5 h, 10 µM stood at 98%. In the case of `O=C(CN1CCC(c2ccc(F)cc2)CC1)Nc1nccs1` [CBK283566] it was 90%; in that of `Cc1csc(NC(=O)CN2CCC(c3ccc(F)cc3)CC2)n1` [CBK283567], 94.2%; in that of `COc1ccc(C(NC(=O)N(C(C)C)C(C)C)c2nccn2C)cc1` (stereo not shown) [CBK283568], 111%. With `Cc1csc(NC(=O)CN2CCC(c3ccccc3F)CC2)n1` [CBK283569] the figure was 109%. `Cc1ccc(C2=CCN(CC(N)=O)CC2)o1` [CBK283570]: the viability at 28.5 h, 10 µM came out at 98.3%. With `COc1ccccc1C1(NC(=O)Cn2nc(C)cc2C)CCCC1` [CBK283573] the figure was 101%.
